{
  "source": "patent EP0317544A1",
  "about": "“Method of modifying the micro environment of an enzyme by cross-linking the peptidic molecules, use thereof for making enzymatic reactors requiring the regeneration of the cofactor” (priority 1987, dated 1989)",
  "key": {"[1]": {"biological_target": "alcool déshydrogénase (ADH), préparation ADH-LYS-PAA (poly-lysine-résine, forme immobilisée) (Saccharomyces cerevisiae, UniProt P00330)", "sequence (P00330 2-348)": "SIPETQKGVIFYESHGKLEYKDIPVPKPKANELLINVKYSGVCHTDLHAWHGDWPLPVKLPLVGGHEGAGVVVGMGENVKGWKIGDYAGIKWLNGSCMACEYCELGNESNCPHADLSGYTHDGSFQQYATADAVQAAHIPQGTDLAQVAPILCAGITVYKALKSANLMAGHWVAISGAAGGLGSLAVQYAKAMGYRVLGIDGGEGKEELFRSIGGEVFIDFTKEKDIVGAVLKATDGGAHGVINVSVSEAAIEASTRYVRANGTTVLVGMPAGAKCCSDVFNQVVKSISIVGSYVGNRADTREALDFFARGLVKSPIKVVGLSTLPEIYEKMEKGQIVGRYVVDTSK", "assay": "Two-substrate ordered kinetics of alcohol dehydrogenase, polylysine-grafted preparation copolymerised in polyacrylamide gel", "format": "biochemical", "conditions": "enzyme incorporated in polyacrylamide gel; apparent value, diffusion effects", "description": "(§1) L'alcool déshydrogénase étant un enzyme suivant une réaction ordonnée à deux substrats, sa cinétique répond à l'équation : [formula] Ka et Kb sont les constantes de type Michaelis-Menten correspondant à la dissociation du complexe ternaire du NAD⁺ et de l'éthanol alors que Kia représente la constante de dissociation du complexe binaire ADH-NAD⁺ (Wratten et Cleland, 1963, Biochemistry 2, 935-941).\n(§2) Les valeurs des constantes pour les diverses préparations sont donnés au tableau 3. Nous ne pouvons pas ici interpréter chacune de ces valeurs et nous nous limiterons aux variations les plus importantes. En ce qui concerne le Kia, rappelons que plus le Kia est petit, plus l'affinité de l'enzyme pour la fixation de son premier substrat, le NAD⁺ est grande. Nous remarquons peu de variation pour les préparations solubles excepté pour la polylysine. […] Il faut aussi tenir compte de la charge positive de la lysine qui pourrait inhiber la diffusion du NAD⁺. Dans le cas de Ka et Kb, la fixation des peptides sur l'enzyme augmente les constantes, c'est-à-dire diminue l'affinité de fixation de ces substrats sur les complexes quaternaires de l'enzyme. Dans le cas des enzymes incorporés dans le gel, on constate aussi certains changements mais il faut en plus de l'effet du micro-environnement tenir compte des effets de diffusion. […]"}, "[2]": {"biological_target": "alcool déshydrogénase (ADH), préparation ADH-LYS (polylysine, forme soluble) (Saccharomyces cerevisiae, UniProt P00330)", "sequence (P00330 2-348)": "as above", "assay": "Two-substrate ordered kinetics of alcohol dehydrogenase, soluble polylysine-grafted preparation", "format": "biochemical", "conditions": "compared with the other soluble preparations", "description": "as §1, §2"}},
  "data": [
    {"molecule": "NC(=O)c1ccc[n+]([C@@H]2O[C@H](COP(=O)([O-])OP(=O)(O)OC[C@H]3O[C@@H](n4cnc5c(N)ncnc54)[C@H](O)[C@@H]3O)[C@@H](O)[C@H]2O)c1", "note": "[NAD⁺]", "values": [
      {"measurement": "Kia (constante de dissociation du complexe binaire ADH-NAD⁺)", "setting": "[1]", "result": "très faible"},
      {"measurement": "Kia (constante de dissociation du complexe binaire ADH-NAD⁺)", "setting": "[2]", "result": "baisse d'affinité"}
    ]}
  ]
}
